Drawing on article PMC6222927, “Aminobenzosuberone Scaffold as a Modular Chemical Tool for the Inhibition of Therapeutically Relevant M1 Aminopeptidases” (Molecules : A Journal of Synthetic Chemistry and Natural …, 2018), this text covers Ki, IC50 and chromatographic logD for one molecule.

The structures appear in SMILES notation.

In general, Ki refers to the equilibrium dissociation constant of an inhibitor or competing ligand from its target. Broadly, the IC50 is the point on the concentration scale where inhibition reaches its midpoint. For orientation: chromatographic logD means a lipophilicity value derived from retention on a column. A high value points to higher lipophilicity.

Data set [1] deals with E. coli rEcPepN (Escherichia coli, UniProt P04825). Kind of data set: rEcPepN inhibition, Leu-pNA substrate, Dixon method. In kind it is biochemical. Here is the method:
Enzyme activity assays were carried out in 10 mM Tris-HCl buffer at pH 7.5 with 150 mM NaCl, enzyme, 100 µM substrate (Leu-pNA) in a 100 μL reaction at 37 °C. The absorbance was read at 405 nm. Concentrations ranging from 1 nM to 100 μM of inhibitors (dissolved in DMSO) were incubated with each of the enzymes ([…]) for 30 min at 37 °C in a 96 well plate. After addition of the substrate, immediate increase in absorption was measured. All inhibition assays were performed in triplicates and initial velocities were measured. Percentage inhibition and log values of inhibitor concentrations were plotted using SigmaPlot to determine IC50 values. Ki values were determined by the Dixon method. The assay consists of reaction buffer, enzyme and varied concentrations of Leu-pNA (25, 50, 100, 200 and 400 µM). […] Data were plotted as 1/rate versus inhibitor concentration for each substrate concentration and a linear fit was calculated by non-linear regression using SigmaPlot12.5. All the reactions were performed in triplicates, SD values were reported.

Data set [2] deals with T1, human endoplasmic reticulum aminopeptidase 1 (rHsERAP1) (Homo sapiens, UniProt Q9NZ08).
T1 construct: made in house; host or cells: Hi5 insect cells (baculovirus produced in sf9)
T1 sequence (Q9NZ08 whole entry): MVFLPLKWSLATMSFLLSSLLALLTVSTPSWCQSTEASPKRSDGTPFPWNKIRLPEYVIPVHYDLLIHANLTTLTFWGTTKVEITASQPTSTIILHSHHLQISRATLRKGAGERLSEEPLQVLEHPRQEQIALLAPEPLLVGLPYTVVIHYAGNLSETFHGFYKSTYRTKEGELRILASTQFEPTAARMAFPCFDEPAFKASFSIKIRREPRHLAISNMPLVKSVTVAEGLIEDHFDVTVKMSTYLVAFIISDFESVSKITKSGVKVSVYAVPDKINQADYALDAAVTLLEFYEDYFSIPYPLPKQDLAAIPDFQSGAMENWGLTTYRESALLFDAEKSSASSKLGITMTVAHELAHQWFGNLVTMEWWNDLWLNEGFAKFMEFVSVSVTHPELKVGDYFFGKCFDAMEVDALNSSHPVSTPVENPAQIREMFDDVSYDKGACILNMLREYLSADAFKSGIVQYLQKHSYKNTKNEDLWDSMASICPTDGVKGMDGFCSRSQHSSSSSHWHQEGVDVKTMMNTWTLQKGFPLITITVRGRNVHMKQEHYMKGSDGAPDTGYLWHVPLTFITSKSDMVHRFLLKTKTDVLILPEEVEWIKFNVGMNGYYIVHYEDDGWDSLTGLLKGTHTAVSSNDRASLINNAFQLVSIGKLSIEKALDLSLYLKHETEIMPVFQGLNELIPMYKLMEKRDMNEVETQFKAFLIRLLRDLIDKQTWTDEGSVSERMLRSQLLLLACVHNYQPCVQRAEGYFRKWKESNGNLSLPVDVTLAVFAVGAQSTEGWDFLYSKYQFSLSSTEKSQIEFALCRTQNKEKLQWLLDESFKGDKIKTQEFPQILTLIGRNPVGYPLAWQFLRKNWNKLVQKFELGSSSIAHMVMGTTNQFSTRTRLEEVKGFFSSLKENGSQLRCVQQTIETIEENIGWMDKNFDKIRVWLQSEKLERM
Kind of data set: rHsERAP1 inhibition, L-AMC fluorigenic substrate. In kind it is biochemical. As to conditions: 50 µM L-AMC. Here is the method:
(§1) The enzymatic activity of HsERAP1, HsERAP2 and HsIRAP was determined by following the time-dependent increase in fluorescence at 460 nm (excitation: 380 nm) of the fluorigenic substrates L-Leucine-7-amido-4-methyl coumarin (L-AMC; Sigma, Darmstatd, Germany) for HsERAP1 and HsIRAP and L-arginyl-7-amido-4-methyl coumarin (R-AMC; Sigma) for HsERAP2. […] The reaction was followed for 10 min at room temperature and the remaining enzymatic activity was calculated by measuring the slope of the time course.

For data set [3], the target named is T2, human endoplasmic reticulum aminopeptidase 2 (rHsERAP2) (Homo sapiens, UniProt Q6P179).
T2 construct: made in house; host or cells: Hi5 insect cells (baculovirus produced in sf9)
T2 sequence (Q6P179 whole entry): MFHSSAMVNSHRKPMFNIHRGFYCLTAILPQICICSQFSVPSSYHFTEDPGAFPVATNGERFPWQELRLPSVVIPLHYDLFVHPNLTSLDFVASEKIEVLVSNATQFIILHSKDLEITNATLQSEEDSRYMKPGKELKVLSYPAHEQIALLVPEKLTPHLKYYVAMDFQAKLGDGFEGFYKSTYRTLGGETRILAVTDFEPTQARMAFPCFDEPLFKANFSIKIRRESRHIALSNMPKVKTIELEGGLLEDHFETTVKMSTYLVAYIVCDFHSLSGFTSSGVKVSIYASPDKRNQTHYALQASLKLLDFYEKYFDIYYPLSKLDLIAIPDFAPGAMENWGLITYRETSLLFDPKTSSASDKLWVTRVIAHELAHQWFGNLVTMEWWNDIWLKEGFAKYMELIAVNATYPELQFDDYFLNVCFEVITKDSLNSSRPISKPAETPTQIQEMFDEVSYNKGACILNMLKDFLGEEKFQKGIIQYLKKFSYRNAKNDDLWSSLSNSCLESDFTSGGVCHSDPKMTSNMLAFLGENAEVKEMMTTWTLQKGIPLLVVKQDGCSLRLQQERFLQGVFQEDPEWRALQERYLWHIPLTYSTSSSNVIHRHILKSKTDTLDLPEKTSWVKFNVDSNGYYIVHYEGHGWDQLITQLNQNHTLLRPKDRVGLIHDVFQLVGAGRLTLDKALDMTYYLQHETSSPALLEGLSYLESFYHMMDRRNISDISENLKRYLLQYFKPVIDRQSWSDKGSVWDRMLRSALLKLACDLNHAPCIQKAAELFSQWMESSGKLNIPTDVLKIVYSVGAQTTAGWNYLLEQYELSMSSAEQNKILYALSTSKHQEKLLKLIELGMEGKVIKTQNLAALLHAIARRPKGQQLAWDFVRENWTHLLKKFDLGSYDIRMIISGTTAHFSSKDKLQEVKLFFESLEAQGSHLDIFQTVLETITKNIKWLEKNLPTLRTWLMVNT
As to the kind of experiment: rHsERAP2 inhibition, R-AMC fluorigenic substrate. As to conditions: 50 µM R-AMC. It counts as biochemical. How it is done:
as §1

Data set [4] concerns the target human puromycine sensitive aminopeptidase (rHsPSA) (Homo sapiens, UniProt P55786). Kind of data set: rHsPSA inhibition, Leu-pNA substrate, Dixon method. It counts as biochemical. The note with it: triplicate, SD. How it is done:
Enzyme activity assays were carried out in 10 mM Tris-HCl buffer at pH 7.5 with 150 mM NaCl, enzyme, 100 µM substrate (Leu-pNA) in a 100 μL reaction at 37 °C. The absorbance was read at 405 nm. Concentrations ranging from 1 nM to 100 μM of inhibitors (dissolved in DMSO) were incubated with each of the enzymes ([…]) for 30 min at 37 °C in a 96 well plate. After addition of the substrate, immediate increase in absorption was measured. All inhibition assays were performed in triplicates and initial velocities were measured. Percentage inhibition and log values of inhibitor concentrations were plotted using SigmaPlot to determine IC50 values. Ki values were determined by the Dixon method. The assay consists of reaction buffer, enzyme and varied concentrations of Leu-pNA (25, 50, 100, 200 and 400 µM). […]. All the reactions were performed in triplicates, SD values were reported.

The target in data set [5] is T3, human Leucyl-cystinyl aminopeptidase (rHsIRAP) (Homo sapiens, UniProt Q9UIQ6).
T3 construct: made in house; host or cells: Hi5 insect cells (baculovirus produced in sf9)
T3 sequence (Q9UIQ6 155-1025 limits assumed): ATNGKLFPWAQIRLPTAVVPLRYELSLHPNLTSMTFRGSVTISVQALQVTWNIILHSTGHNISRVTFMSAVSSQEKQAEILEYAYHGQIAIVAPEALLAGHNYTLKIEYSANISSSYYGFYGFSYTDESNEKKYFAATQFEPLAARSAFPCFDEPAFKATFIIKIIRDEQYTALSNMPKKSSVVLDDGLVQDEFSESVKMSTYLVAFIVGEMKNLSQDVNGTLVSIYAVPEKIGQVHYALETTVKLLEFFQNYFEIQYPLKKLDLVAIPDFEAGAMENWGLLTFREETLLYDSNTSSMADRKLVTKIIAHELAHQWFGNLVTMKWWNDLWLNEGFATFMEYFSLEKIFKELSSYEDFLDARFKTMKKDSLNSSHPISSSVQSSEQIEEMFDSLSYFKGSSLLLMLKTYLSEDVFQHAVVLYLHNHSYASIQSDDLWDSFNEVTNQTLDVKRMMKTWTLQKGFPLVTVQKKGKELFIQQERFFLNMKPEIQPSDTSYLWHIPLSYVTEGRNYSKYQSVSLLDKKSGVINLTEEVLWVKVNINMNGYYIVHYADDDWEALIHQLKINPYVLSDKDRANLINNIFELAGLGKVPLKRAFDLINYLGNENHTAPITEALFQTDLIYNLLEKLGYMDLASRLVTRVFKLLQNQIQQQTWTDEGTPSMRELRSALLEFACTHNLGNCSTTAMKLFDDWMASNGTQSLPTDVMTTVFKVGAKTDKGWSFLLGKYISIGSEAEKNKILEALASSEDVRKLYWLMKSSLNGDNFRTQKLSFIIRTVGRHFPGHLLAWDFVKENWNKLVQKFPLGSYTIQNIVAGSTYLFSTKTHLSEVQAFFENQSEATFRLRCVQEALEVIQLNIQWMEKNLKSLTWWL
As to the kind of experiment: rHsIRAP inhibition, L-AMC fluorigenic substrate. As to conditions: 50 µM L-AMC; read-out: IC50 rHsIRAP. In kind it is biochemical. Here is the method: The enzymatic activity of HsERAP1, HsERAP2 and HsIRAP was determined by following the time-dependent increase in fluorescence at 460 nm (excitation: 380 nm) of the fluorigenic substrates L-Leucine-7-amido-4-methyl coumarin (L-AMC; Sigma, Darmstatd, Germany) for HsERAP1 and HsIRAP and L-arginyl-7-amido-4-methyl coumarin (R-AMC; Sigma) for HsERAP2. […]. The reaction was followed for 10 min at room temperature and the remaining enzymatic activity was calculated by measuring the slope of the time course. […]

For data set [6], the target named is T4, P. falciparum rPfAM17 (Plasmodium falciparum, UniProt Q8IL11).
T4 construct: made in house; host or cells: Escherichia coli Rosetta 2 (DE3)
T4 sequence (Q8IL11 1-605): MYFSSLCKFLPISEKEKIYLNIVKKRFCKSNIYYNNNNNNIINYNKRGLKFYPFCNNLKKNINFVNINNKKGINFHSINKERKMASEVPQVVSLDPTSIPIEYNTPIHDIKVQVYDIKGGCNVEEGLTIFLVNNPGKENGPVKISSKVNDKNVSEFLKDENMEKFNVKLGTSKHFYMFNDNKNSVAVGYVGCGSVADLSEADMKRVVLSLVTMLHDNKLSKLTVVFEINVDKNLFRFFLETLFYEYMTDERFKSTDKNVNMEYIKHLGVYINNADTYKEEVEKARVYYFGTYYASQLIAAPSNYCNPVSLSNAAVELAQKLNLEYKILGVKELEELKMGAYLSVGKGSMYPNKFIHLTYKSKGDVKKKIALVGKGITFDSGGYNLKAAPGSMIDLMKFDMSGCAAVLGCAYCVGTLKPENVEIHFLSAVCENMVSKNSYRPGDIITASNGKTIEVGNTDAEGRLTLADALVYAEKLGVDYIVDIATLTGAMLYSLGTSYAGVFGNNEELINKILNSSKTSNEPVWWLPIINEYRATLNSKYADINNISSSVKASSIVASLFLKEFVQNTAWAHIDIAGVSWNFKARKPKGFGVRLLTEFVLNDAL
Kind of data set: rPfAM17 inhibition, Leu-pNA substrate, Dixon plots. In kind it is biochemical. How it is done: Tests were carried out on HP/Agilent UV-Visible diode array spectrophotometer 8453 (HP/Agilent, Santa Clara, CA, USA), at 30 °C in Tris HCl 50 mM pH 7.4 for rPfAM1 and pH 8 for rPfAM17, with a final DMSO concentration of 1%. […]. […] Initial velocities were measured with increasing concentrations of inhibitors and Ki values were determined by Dixon plots in triplicate.

The target of data set [7] is pAPN from porcine kidney. As to conditions: Dixon plots; cited from earlier work.
The target of data set [8] is human leukotriene A4 hydrolase (rHsLTA4H). Also noted: method as in PMID 21843945. As to conditions: ref 58; cited from earlier work.
Data set [9] concerns the target aminopeptidase from A. proteolytica (AAP). Also noted: method as in PMID 21843945. The note with it: ref 58; cited from earlier work.
Data set [10] in a line: Octanol/water partition coefficient (logD7.4) by reversed-phase HPLC. The note with it: pH 7.4.
Protocol: The flow was 0.9 mL/min. The aminobenzosuberone derivatives were dissolved at 0.4 µM in methanol. The standards were also dissolved in methanol. Column void volume was estimated from the retention time of uracil, which was included as a non-retained internal reference with each injection.

Sequence of human puromycine sensitive aminopeptidase (rHsPSA) (P55786 whole entry): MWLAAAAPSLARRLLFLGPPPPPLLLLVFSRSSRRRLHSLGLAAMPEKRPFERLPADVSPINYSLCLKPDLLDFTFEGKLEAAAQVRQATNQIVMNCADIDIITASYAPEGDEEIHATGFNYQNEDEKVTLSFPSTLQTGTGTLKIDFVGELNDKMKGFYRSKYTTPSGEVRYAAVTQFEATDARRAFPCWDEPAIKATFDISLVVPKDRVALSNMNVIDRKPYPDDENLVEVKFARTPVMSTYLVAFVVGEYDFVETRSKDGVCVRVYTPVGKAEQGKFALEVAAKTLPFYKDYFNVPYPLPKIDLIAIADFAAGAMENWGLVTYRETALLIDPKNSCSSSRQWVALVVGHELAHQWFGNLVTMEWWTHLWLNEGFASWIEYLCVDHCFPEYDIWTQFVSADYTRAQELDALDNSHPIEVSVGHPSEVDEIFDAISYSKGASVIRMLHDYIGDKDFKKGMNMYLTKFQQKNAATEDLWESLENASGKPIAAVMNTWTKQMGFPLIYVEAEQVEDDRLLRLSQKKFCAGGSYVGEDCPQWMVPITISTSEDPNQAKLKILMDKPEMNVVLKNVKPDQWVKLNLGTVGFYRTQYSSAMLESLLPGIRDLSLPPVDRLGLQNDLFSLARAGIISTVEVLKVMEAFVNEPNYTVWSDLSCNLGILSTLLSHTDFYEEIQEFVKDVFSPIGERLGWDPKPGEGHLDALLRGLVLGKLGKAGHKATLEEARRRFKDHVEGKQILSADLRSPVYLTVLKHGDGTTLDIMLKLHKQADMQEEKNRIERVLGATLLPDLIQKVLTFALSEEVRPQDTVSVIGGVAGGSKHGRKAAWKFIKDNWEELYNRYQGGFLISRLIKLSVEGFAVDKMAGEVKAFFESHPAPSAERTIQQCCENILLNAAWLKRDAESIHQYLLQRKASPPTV
Sequence of E. coli rEcPepN (P04825 whole entry): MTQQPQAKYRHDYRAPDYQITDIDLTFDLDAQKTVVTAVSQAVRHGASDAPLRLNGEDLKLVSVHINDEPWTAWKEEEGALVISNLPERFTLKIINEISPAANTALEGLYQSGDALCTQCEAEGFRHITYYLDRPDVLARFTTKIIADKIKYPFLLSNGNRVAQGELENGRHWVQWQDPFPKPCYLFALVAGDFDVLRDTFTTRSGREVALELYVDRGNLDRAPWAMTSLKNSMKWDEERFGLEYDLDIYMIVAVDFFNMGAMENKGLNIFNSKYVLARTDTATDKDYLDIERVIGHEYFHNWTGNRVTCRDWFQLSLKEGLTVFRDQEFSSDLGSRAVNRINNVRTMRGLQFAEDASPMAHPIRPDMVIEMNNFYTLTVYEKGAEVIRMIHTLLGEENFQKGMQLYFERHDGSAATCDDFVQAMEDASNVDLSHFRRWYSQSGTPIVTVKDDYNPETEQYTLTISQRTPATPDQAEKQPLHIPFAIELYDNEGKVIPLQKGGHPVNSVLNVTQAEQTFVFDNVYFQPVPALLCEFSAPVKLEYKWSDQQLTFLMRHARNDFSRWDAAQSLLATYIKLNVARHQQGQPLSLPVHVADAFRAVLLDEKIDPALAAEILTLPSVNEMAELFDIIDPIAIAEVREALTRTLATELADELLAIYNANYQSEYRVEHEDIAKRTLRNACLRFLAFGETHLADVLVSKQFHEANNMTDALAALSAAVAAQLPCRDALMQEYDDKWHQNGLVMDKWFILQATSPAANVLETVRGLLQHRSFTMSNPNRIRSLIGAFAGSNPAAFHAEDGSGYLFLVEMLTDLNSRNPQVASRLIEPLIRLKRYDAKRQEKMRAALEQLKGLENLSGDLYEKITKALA

Turning to `NC1CCc2c(Br)cccc2CC1=O` (stereo not shown) [21e], the Ki in [1] is 4.59 ± 0.17 µM; in [4], 1.07 ± 0.063 µM; in [6] it was greater than 100 µM; in [7], 0.02 µM; in data set [8], greater than 100 µM; in data set [9], greater than 100 µM. For the same molecule, the half-maximal inhibitory concentration (IC50) in data set [2] came out at 56 ± 7 µM; in data set [3], 104 ± 7 µM; in [5], 2.6 ± 0.2 µM. The molecule also displayed a chromatographic logD in data set [10] of 1.41.
